Data taken from ChEMBL document CHEMBL1201862, “PubChem BioAssay data set” (2004).
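Protocol summary: plate cells (96-well), add compound at 5 concentrations, incubate 48 h, interpolate endpoints linearly. Abbreviation: GI50, concentration required for 50% inhibition of growth.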 Active and inactive are the calls of the source. No stated cut-off is given here; in the data, active = GI50 up to about 1.1 µM and inactive = higher.

Assays:
Assay in all cases: DTP human tumour cell line panel, 48 h
[1] = test system: UACC-257
[2] = test system: ACHN
[3] = test system: RPMI-8226
[4] = test system: SR
[5] = test system: COLO 205
[6] = test system: SF-295
[7] = test system: 786-0
[8] = test system: MCF7
[9] = test system: OVCAR-8
[10] = test system: Malme-3M
[11] = test system: OVCAR-5
[12] = test system: DU-145
[13] = test system: NCI-H23
[14] = test system: HL-60
[15] = test system: U-251
[16] = test system: HCT-15
[17] = test system: OVCAR-3
[18] = test system: SK-OV-3
[19] = test system: OVCAR-4
[20] = test system: SNB-75

Row | Compound | GI50 [1] | GI50 [2] | GI50 [3] | GI50 [4] | GI50 [5] | GI50 [6] | GI50 [7] | GI50 [8] | GI50 [9] | GI50 [10] | GI50 [11] | GI50 [12] | GI50 [13] | GI50 [14] | GI50 [15] | GI50 [16] [µM] | GI50 [17] | GI50 [18] | GI50 [19] | GI50 [20]
1 | Cc1ccc(/S(Cc2ccccc2)=N\S(=O)(=O)c2ccc(C)cc2)cc1 (configuration not stated) | > 100 µM (inactive) | > 100 µM (inactive) | > 100 µM (inactive) | > 100 µM (inactive) | > 100 µM (inactive) | > 100 µM (inactive) | > 100 µM (inactive) | > 100 µM (inactive) | > 100 µM (inactive) | > 100 µM (inactive) | > 100 µM (inactive) | > 100 µM (inactive) | > 100 µM (inactive) | > 100 µM (inactive) | > 100 µM (inactive) | 95.1 | > 100 µM (inactive) | – | – | –
2 | S=C(Nc1ccccc1)c1ccc(CN2CCCCC2)s1 | 19.4 µM (inactive) | 45 µM (inactive) | 21.7 µM (inactive) | 15.6 µM (inactive) | 18.7 µM (inactive) | 18.5 µM (inactive) | 17.6 µM (inactive) | 18 µM (inactive) | 15.6 µM (inactive) | 21 µM (inactive) | 16.2 µM (inactive) | 60.1 µM (inactive) | 19.4 µM (inactive) | 14.9 µM (inactive) | 19 µM (inactive) | 18.3 | 48.6 µM (inactive) | 19.5 µM (inactive) | 35.6 µM (inactive) | –
3 | [O-][S+](Nc1ccccc1)c1ccc(Cl)cc1 (configuration not stated) | > 100 µM (inactive) | > 100 µM (inactive) | > 100 µM (inactive) | 16.4 µM (inactive) | > 100 µM (inactive) | > 100 µM (inactive) | > 100 µM (inactive) | > 100 µM (inactive) | > 100 µM (inactive) | > 100 µM (inactive) | > 100 µM (inactive) | 91.4 µM (inactive) | > 100 µM (inactive) | > 100 µM (inactive) | 23.6 µM (inactive) | 75.2 | > 100 µM (inactive) | – | > 100 µM (inactive) | –
4 | Cc1c(OCc2cccc3ccccc23)ccc2c(=O)cc(SCCN3CCOCC3)oc12 | > 100 µM (inactive) | > 100 µM (inactive) | – | > 100 µM (inactive) | > 100 µM (inactive) | > 100 µM (inactive) | > 100 µM (inactive) | > 100 µM (inactive) | > 100 µM (inactive) | – | 78.2 µM (inactive) | > 100 µM (inactive) | > 100 µM (inactive) | > 100 µM (inactive) | > 100 µM (inactive) | > 100 | > 100 µM (inactive) | – | 38.5 µM (inactive) | > 100 µM (inactive)
5 | CNCCCNC(=S)Cn1cc(C)c(=O)[nH]c1=O | > 37.9 µM (inactive) | > 49.2 µM (inactive) | > 100 µM (inactive) | > 32.9 µM (inactive) | > 48.8 µM (inactive) | > 27 µM (inactive) | > 44.3 µM (inactive) | > 31.8 µM (inactive) | > 26.6 µM (inactive) | > 100 µM (inactive) | > 69.5 µM (inactive) | > 52.2 µM (inactive) | > 41.8 µM (inactive) | – | > 47.5 µM (inactive) | > 42.7 | > 48.9 µM (inactive) | > 54.8 µM (inactive) | > 53.2 µM (inactive) | > 54.2 µM (inactive)
6 | COc1cc2c(cc1O)C(=O)O[C@@H]1CC=C3CCN(C)[C@H]3[C@H]21 | > 25 µM (inactive) | > 25 µM (inactive) | > 25 µM (inactive) | > 25 µM (inactive) | – | > 25 µM (inactive) | > 25 µM (inactive) | > 25 µM (inactive) | > 25 µM (inactive) | > 25 µM (inactive) | > 25 µM (inactive) | > 25 µM (inactive) | > 25 µM (inactive) | – | > 25 µM (inactive) | > 25 | > 25 µM (inactive) | > 25 µM (inactive) | > 25 µM (inactive) | > 25 µM (inactive)
7 | N#Cc1c(-c2ccc([N+](=O)[O-])cc2)cc(-c2ccc(Nc3ccnc4cc(C(F)(F)F)ccc34)cc2)nc1N | > 50 µM (inactive) | 29.6 µM (inactive) | 4.27 µM (inactive) | 1.79 µM (inactive) | 28.3 µM (inactive) | 15.9 µM (inactive) | 4.1 µM (inactive) | 2.59 µM (inactive) | 20.1 µM (inactive) | 30.3 µM (inactive) | 30.9 µM (inactive) | 13.1 µM (inactive) | 23.2 µM (inactive) | – | 6.34 µM (inactive) | 5.96 | 12.9 µM (inactive) | 24 µM (inactive) | 7.6 µM (inactive) | 20.4 µM (inactive)
8 | O=C1N/C(=N/N=C/c2ccccc2)N/C1=C\c1c[nH]c2ccccc12 | > 100 µM (inactive) | > 100 µM (inactive) | 7.52 µM (inactive) | – | 60.7 µM (inactive) | > 100 µM (inactive) | 41.5 µM (inactive) | 80.7 µM (inactive) | 38.2 µM (inactive) | > 100 µM (inactive) | > 100 µM (inactive) | > 100 µM (inactive) | 95.1 µM (inactive) | 67.3 µM (inactive) | 21.9 µM (inactive) | > 100 | 49.7 µM (inactive) | > 100 µM (inactive) | > 100 µM (inactive) | > 100 µM (inactive)
9 | CC(=O)NC1C(Sc2ncn(C3OC(CO)C(O)C(O)C3NC(C)=O)n2)OC(CO)C(O)C1O (configuration not stated) | > 100 µM (inactive) | > 100 µM (inactive) | > 100 µM (inactive) | – | > 100 µM (inactive) | > 100 µM (inactive) | > 100 µM (inactive) | > 100 µM (inactive) | > 100 µM (inactive) | > 100 µM (inactive) | > 100 µM (inactive) | > 100 µM (inactive) | > 100 µM (inactive) | > 100 µM (inactive) | > 100 µM (inactive) | > 100 | > 100 µM (inactive) | > 100 µM (inactive) | > 100 µM (inactive) | –
10 | O=c1[nH]c(=O)n(COCc2ccccc2)c2ccccc12 | 53.7 µM (inactive) | 32.1 µM (inactive) | – | 37 µM (inactive) | 72.3 µM (inactive) | > 100 µM (inactive) | > 100 µM (inactive) | 38 µM (inactive) | 40.9 µM (inactive) | – | > 100 µM (inactive) | > 100 µM (inactive) | – | 19.9 µM (inactive) | 52.1 µM (inactive) | 14 | 87.3 µM (inactive) | 89.9 µM (inactive) | 44.3 µM (inactive) | 13.1 µM (inactive)
11 | CC(=O)OC1CC[C@@]2(C)C(=CC[C@@H]3[C@@H]2CC[C@]2(C)Nc4c(cnn4-c4ccc(F)cc4)C[C@@H]32)C1 (some centres not stated) | 45.1 µM (inactive) | 35.3 µM (inactive) | 3.24 µM (inactive) | – | 5.45 µM (inactive) | 4.53 µM (inactive) | 3.26 µM (inactive) | > 34.8 µM (inactive) | 40 µM (inactive) | 9.35 µM (inactive) | > 87.5 µM (inactive) | 45.5 µM (inactive) | 22.1 µM (inactive) | 2.93 µM (inactive) | 7.43 µM (inactive) | 20 | > 39.4 µM (inactive) | 32.1 µM (inactive) | > 53.5 µM (inactive) | 16.8 µM (inactive)
12 | CCNc1ncnc2nn[nH]c12 | > 100 µM (inactive) | > 100 µM (inactive) | > 100 µM (inactive) | – | > 100 µM (inactive) | > 100 µM (inactive) | > 100 µM (inactive) | > 100 µM (inactive) | > 100 µM (inactive) | > 100 µM (inactive) | – | > 100 µM (inactive) | > 100 µM (inactive) | > 100 µM (inactive) | > 100 µM (inactive) | > 100 | > 100 µM (inactive) | > 100 µM (inactive) | > 100 µM (inactive) | > 100 µM (inactive)
13 | CC1(C)[C@@H]2CC[C@@]1(C)CN(CCC[N+](C)(C)C)C2 | > 100 µM (inactive) | > 100 µM (inactive) | > 100 µM (inactive) | > 100 µM (inactive) | > 100 µM (inactive) | > 100 µM (inactive) | > 100 µM (inactive) | > 100 µM (inactive) | > 100 µM (inactive) | > 100 µM (inactive) | > 100 µM (inactive) | > 100 µM (inactive) | > 100 µM (inactive) | – | > 100 µM (inactive) | > 100 | > 100 µM (inactive) | > 100 µM (inactive) | > 100 µM (inactive) | > 100 µM (inactive)
14 | c1ccc(-c2nc3ccccc3n3c(CN4CCCCC4)nnc23)cc1 | > 100 µM (inactive) | 28.7 µM (inactive) | > 100 µM (inactive) | > 100 µM (inactive) | > 100 µM (inactive) | 49.4 µM (inactive) | 37.3 µM (inactive) | > 100 µM (inactive) | 99.3 µM (inactive) | > 100 µM (inactive) | > 100 µM (inactive) | > 100 µM (inactive) | – | – | 47 µM (inactive) | > 100 | > 100 µM (inactive) | 47.3 µM (inactive) | > 100 µM (inactive) | 19.2 µM (inactive)
15 | COC(=O)C12CCCN1CCC2 | > 100 µM (inactive) | > 100 µM (inactive) | – | > 100 µM (inactive) | > 100 µM (inactive) | > 100 µM (inactive) | > 100 µM (inactive) | > 100 µM (inactive) | – | > 100 µM (inactive) | > 100 µM (inactive) | > 100 µM (inactive) | > 100 µM (inactive) | – | > 100 µM (inactive) | > 100 | > 100 µM (inactive) | > 100 µM (inactive) | > 100 µM (inactive) | > 100 µM (inactive)
